In article PMC5736559, “Dual blockade of the lipid kinase PIP4Ks and mitotic pathways leads to cancer-selective lethality” (Nature Communications, 2017):
Blank lines part the entries; values can stand above or below the compound they belong to.

Tests used:
PIP4K2A = PIP4K2A (Homo sapiens, UniProt P48426); test: ADP-Glo kinase assay with purified PIP4K2A and PI([…])P; assay type: biochemical
Ferrochelatase = molecular target: T1, Ferrochelatase (Homo sapiens, UniProt P22830); test: MS-CETSA thermal shift in normal BJ cell lysate, […] compound (off-target hit); assay type: cell-based
T1 construct: gene FECH
T1 sequence (P22830 55-423): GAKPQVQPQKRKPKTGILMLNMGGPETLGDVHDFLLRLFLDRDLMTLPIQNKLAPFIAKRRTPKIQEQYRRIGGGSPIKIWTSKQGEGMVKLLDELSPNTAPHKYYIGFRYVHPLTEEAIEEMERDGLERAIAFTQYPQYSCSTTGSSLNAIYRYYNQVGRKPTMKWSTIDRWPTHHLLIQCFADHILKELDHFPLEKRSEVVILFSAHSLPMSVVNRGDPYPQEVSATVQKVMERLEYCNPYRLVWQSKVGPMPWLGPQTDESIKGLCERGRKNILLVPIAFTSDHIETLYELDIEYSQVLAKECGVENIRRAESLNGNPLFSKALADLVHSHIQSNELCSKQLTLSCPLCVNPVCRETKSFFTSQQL

PIP4K2C = PIP4K2C (Homo sapiens, UniProt Q8TBX8); test: MS-CETSA thermal shift in normal BJ cell lysate, […] compound; assay type: cell-based
Sequence of PIP4K2C (Q8TBX8 2-421): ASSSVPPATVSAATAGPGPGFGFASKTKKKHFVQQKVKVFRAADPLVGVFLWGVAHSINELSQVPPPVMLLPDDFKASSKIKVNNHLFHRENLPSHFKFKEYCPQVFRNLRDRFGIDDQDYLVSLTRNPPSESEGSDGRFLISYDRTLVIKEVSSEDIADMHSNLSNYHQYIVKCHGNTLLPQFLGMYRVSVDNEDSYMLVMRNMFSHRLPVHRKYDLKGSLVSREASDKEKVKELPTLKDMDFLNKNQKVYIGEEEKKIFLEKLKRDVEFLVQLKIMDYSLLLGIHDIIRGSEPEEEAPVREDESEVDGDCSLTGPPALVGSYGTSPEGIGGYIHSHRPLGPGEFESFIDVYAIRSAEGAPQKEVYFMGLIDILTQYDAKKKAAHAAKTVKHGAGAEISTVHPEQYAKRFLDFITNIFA

A549 = test: cells; set-up: MTT cell viability/proliferation assay, absorbance 540 minus 660 nm, GI50 by non-linear regression; conditions: Homo sapiens, A549; cancer cells, 72 h MTT
Description: (§1) Cells were plated in 96-well microplates on day 0, and a131 was added to each well on day 1 at a range of different concentrations (from 0.1 to 40 μM) in triplicate. After 3 days of culture, the number of viable cells was determined using MTT cell proliferation assays by adding thiazolyl blue tetrazolium bromide (MTT reagent, Invitrogen) at a concentration of 0.5 mg/ml to each well and incubating for 4 h at 37 °C. The medium was then removed, and the blue dye remaining in each well was dissolved in DMSO by mixing with a microplate mixer. The absorbance of each well was measured at 540 and 660 nm using a microplate reader (Benchmark plus, Bio-Rad). Optical density (OD) values were calculated by subtracting the absorbance at 660 nm from the absorbance at 540 nm. Mean OD values from control cells containing only DMSO-treated wells were set as 100% viable. […] Mean values with ± standard deviation (S.D.) are shown (n = 3). c, d Normal and transformed BJ cells were treated with a131 at 2.5 μM for 48 h. c FACS analysis using BrdU and PI double staining of the indicated cells. Percentages of BrdU-positive (S) population indicating cell cycle arrest and subG1 (<2N) population indicating cell death are shown. Representative FACS analysis shown (n = 3). d Immunoblot analysis of cleaved PARP and caspase-3 (Cas-3) indicating a131-induced apoptosis in transformed BJ cells (lanes 5, 6), but not normal counterparts (lanes 2, 3). Representative immunoblots shown (n = 3). e MTT assay of human normal and cancer cell lines treated with a131 for 72 h (n = 3). Mean concentration values for a131 to achieve 50% growth inhibition (GI50) in each cell line are plotted with ± S.D. f FACS analysis of a series of engineered BJ-derived fibroblasts treated with a131 at 5 µM for 48 h. Mean values of subG1 (<2N) population ± S.D. are shown (n > 3). g, h Normal and transformed BJ cells stably expressing GFP-histone H2B were treated with a131 at 2.5 μM for 32 h prior to fixation. g Immunofluorescence analysis with representative images (n = 3). h Quantification of cells (n > 100 per condition) with the indicated centrosome numbers. Mean values ± S.D. are shown (n = 3). i Mice bearing established tumor xenografts were treated orally (PO) or intraperitoneally (IP) twice daily with the indicated doses of a131 or its derivative b5. Tumor volumes were calculated periodically as indicated. Paclitaxel (PTX) was administered intravenously for twice every 4 days. Mean tumor volumes ± S.D. from six mice are shown. Two-way ANOVA was performed to determine statistical significance compared to vehicle control. j, k TUNEL staining (j) or immu

AGS = test: cells; set-up: MTT cell viability/proliferation assay, absorbance 540 minus 660 nm, GI50 by non-linear regression; conditions: Homo sapiens, AGS; cancer cells, 72 h MTT
Description: as §1

HCT116 = test: cells; set-up: MTT cell viability/proliferation assay, absorbance 540 minus 660 nm, GI50 by non-linear regression; conditions: Homo sapiens, HCT-116; cancer cells, 72 h MTT
Description: as §1

HCT15 = test: cells; set-up: MTT cell viability/proliferation assay, absorbance 540 minus 660 nm, GI50 by non-linear regression; conditions: Homo sapiens, HCT-15; cancer cells, 72 h MTT
Description: as §1

HGC27 = test: cells; set-up: MTT cell viability/proliferation assay, absorbance 540 minus 660 nm, GI50 by non-linear regression; conditions: Homo sapiens, HGC-27; cancer cells, 72 h MTT
Description: as §1

HT29 = test: cells; set-up: MTT cell viability/proliferation assay, absorbance 540 minus 660 nm, GI50 by non-linear regression; conditions: Homo sapiens, HT-29; cancer cells, 72 h MTT
Description: as §1

HeLa = test: cells; set-up: MTT cell viability/proliferation assay, absorbance 540 minus 660 nm, GI50 by non-linear regression; conditions: Homo sapiens, HeLa; cancer cells, 72 h MTT
Description: as §1

Huh7 = test: cells; set-up: MTT cell viability/proliferation assay, absorbance 540 minus 660 nm, GI50 by non-linear regression; conditions: Homo sapiens, Huh-7; cancer cells, 72 h MTT
Description: as §1

IM95 = test: cells; set-up: MTT cell viability/proliferation assay, absorbance 540 minus 660 nm, GI50 by non-linear regression; conditions: Homo sapiens, IM95; cancer cells, 72 h MTT
Description: as §1

MCF7 = test: cells; set-up: MTT cell viability/proliferation assay, absorbance 540 minus 660 nm, GI50 by non-linear regression; conditions: Homo sapiens, MCF7; cancer cells, 72 h MTT
Description: as §1

MDA-MB-231 = test: cells; set-up: MTT cell viability/proliferation assay, absorbance 540 minus 660 nm, GI50 by non-linear regression; conditions: Homo sapiens, MDA-MB-231; cancer cells, 72 h MTT
Description: as §1

NCC24 = test: cells; set-up: MTT cell viability/proliferation assay, absorbance 540 minus 660 nm, GI50 by non-linear regression; conditions: cancer cells, 72 h MTT
Description: as §1

NCC59 = test: cells; set-up: MTT cell viability/proliferation assay, absorbance 540 minus 660 nm, GI50 by non-linear regression; conditions: cancer cells, 72 h MTT
Description: as §1

NUGC3 = test: cells; set-up: MTT cell viability/proliferation assay, absorbance 540 minus 660 nm, GI50 by non-linear regression; conditions: Homo sapiens, NUGC-3; cancer cells, 72 h MTT
Description: as §1

SNU-16 = test: cells; set-up: MTT cell viability/proliferation assay, absorbance 540 minus 660 nm, GI50 by non-linear regression; conditions: Homo sapiens, SNU-16; cancer cells, 72 h MTT
Description: as §1

SNU1750 = test: cells; set-up: MTT cell viability/proliferation assay, absorbance 540 minus 660 nm, GI50 by non-linear regression; conditions: cancer cells, 72 h MTT
Description: as §1

SNU1 = test: cells; set-up: MTT cell viability/proliferation assay, absorbance 540 minus 660 nm, GI50 by non-linear regression; conditions: Homo sapiens, SNU1; cancer cells, 72 h MTT
Description: as §1

SNU449 = test: cells; set-up: MTT cell viability/proliferation assay, absorbance 540 minus 660 nm, GI50 by non-linear regression; conditions: Homo sapiens, SNU-449; cancer cells, 72 h MTT
Description: as §1

SNU620 = test: cells; set-up: MTT cell viability/proliferation assay, absorbance 540 minus 660 nm, GI50 by non-linear regression; conditions: SNU620; cancer cells, 72 h MTT
Description: as §1

Sequence of PIP4K2A (P48426 2-406): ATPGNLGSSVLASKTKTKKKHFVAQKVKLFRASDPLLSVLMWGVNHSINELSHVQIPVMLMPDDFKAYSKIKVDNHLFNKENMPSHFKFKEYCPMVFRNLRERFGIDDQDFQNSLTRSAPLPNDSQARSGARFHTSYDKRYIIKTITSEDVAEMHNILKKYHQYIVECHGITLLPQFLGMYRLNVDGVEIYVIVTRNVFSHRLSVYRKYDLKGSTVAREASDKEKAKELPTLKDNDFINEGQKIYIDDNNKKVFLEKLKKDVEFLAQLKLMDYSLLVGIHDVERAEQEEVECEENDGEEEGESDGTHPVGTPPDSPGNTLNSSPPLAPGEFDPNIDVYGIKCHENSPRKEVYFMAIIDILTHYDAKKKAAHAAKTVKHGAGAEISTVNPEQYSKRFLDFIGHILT

SMILES: COc1cc(/C=C(\C#N)C(=O)c2ccc(O)c(O)c2)cc(I)c1O [I-OMe-AG-538]
IC50 (PIP4K2A): 2100 nM

GI50 (A549): 1970 nM
GI50 (AGS): 1130 nM
GI50 (HCT116): 1840 nM
GI50 (HCT15): 545 nM
GI50 (HT29): 915 nM
GI50 (HeLa): 1440 nM
GI50 (Huh7): 1180 nM
GI50 (MCF7): 1240 nM
GI50 (MDA-MB-231): 1140 nM
GI50 (SNU-16): 982 nM
GI50 (SNU1750): 747 nM
GI50 (SNU1): 919 nM
GI50 (SNU449): 2270 nM
GI50 (SNU620): 982 nM
SMILES: N#C/C(=C\c1cccc2cnccc12)c1c[nH]c2ccccc12 [a131]
MS-CETSA thermal shift in normal BJ cell lysate, 100 μM compound (off-target hit) (Ferrochelatase): Ferrochelatase in a131 and coproporphyrinogen-III oxidase in a166 were identified as prominent hits
MS-CETSA thermal shift in normal BJ cell lysate, 100 μM compound (PIP4K2C): two out of the three family members (PIP4K2A and 2C) in a131
GI50 (HGC27): 1170 nM
GI50 (IM95): 1040 nM
GI50 (NCC24): 1230 nM
GI50 (NCC59): 944 nM
GI50 (NUGC3): 1040 nM
